Experimental data as given in article PMC5667506, “Potent and selective inhibition of SH3 domains with dirhodium metalloinhibitors” (Chemical Science, 2015).

Experiments:
[1] = target: Fyn SH3 domain; parameters: method as in PMID 22621321; details: Fyn SH3, ITC; previously reported ref 52; cited from earlier work
[2] = target: T1, Src SH3 domain (Homo sapiens, UniProt P12931); assay: ITC binding to Src SH3 domain
T1 construct: fyn, yes, lck, and src SH3 protein domains were prepared following published procedures; made in house
Method: All chemical reagents were purchased from Sigma-Aldrich and were used without further purification.
Peptide synthesis. All peptides were synthesized manually or with an AAPPTEC APEX 396 Automated Multipeptide Synthesizer using standard solid-phase Fmoc protocols.1,2 Peptides were prepared as C-terminal amides using Rink amide MBHA resin (AAPPTEC) and were acetylated at the N-terminus prior to cleavage from the resin. Peptides and metallopeptides were purified by reverse-phase HPLC.
HPLC separation. Reverse-phase HPLC was performed on a Shimadzu CBM-20A instrument with Phenomenex Jupiter 4μ Proteo 90A (250 × 15 mm preparative) and Phenomenex Jupiter 4μ Proteo 90A (250 × 4.6 mm analytical) columns. The columns were eluted with a gradient of acetonitrile in water (10-90%) (flow rates of 8 mL/min and 1 mL/min for preparative and analytical columns, respectively). Trifluoroacetic acid (0.1%) was added to all eluents.
FPLC separation. Analytical FPLC was performed on an ÄKTA instrument with Superdex Peptide PE 7.5/300 column. The column was equilibrated with buffer (150 mM NaCl, 50 mM Tris, pH 7.0) at flow rate of 0.2 mL/min.
ITC analysis. ITC experiments were carried out on a VP-ITC instrument (MicroCal) at 25 °C. Titrations of 275 μM peptide into 18 μM SH3 domain proteins were used for all titrations, except for the titration of S2ERh into Lyn SH3 domain, where the lower concentrations of 69 µM S2ERh peptide and 4 µM Lyn SH3 were used to attain a c-value for the titration within the accepted limts for ITC experiments ([…]).3
Heats of dilutions were measured independently for each experiment by titrating 275 μM peptide into buffer (20 mM phosphate buffer, pH 7, 150 mM NaCl, 1 mM EDTA). All experimental data were fitted using a one set of sites binding model in Origin software (MicroCal) except for the data with Hck SH3 domain. With Hck only, the non-peptide specific binding of dirhodium tetraacetate to Hck SH3 domain could not be treated as negligible, despite the very weak interaction (88 µM), due to the larger enthalpy contribution observed for non-specific binding to this SH3 domain, so the titrations of peptide into Hck were fitted using a 2 set of sites binding model where the stoichiometry for the second set of sites was fixed at 2.0. […]
Mass spectrometry. ESI-MS was performed on a Bruker Daltonics micrOTOF instrument.
Known compounds and proteins. Several metallopeptides (S2ERh, L3ERh, R5ERh, and 13DRh) were reported previously and were prepared by known protocols;4 alkyne-diazo 3,5 3-azido-7-hydroxycoumarin6 were synthesized following reported procedures; fyn, yes, lck, and src SH3 protein domains were prepared following published procedures.5 Abl, hck, and lyn SH3 domain plasmids were adapted from the previously reported genes;7 the gene templates were obtained from Addgene, ID

Stoichiometry [2]: 1.1 | -TΔS ([2]; 25 °C): 7.2 kcal/mol | Kd ([2]; 25 °C): 0.327 µM | ΔG ([2]; 25 °C): -8.8 kcal/mol | ΔH ([2]; 25 °C): -16.0 kcal/mol
Substance: AcVELARRPLPPLPN-NH2 [S2E^Rh]
Kd [1]: 0.769 µM
